Patent US4193913A, “Thermoplastic vinyl chloride polymers containing monoalkyl-tin-stabilizers” (priority 1978, dated 1980)

Assays:
rats [1] = experiment: Acute oral LD50 in rats; format: in vivo, rat; settings: for acute oral LD50: rats of both sexes, oral intubation
Protocol: Compound III was weighed into an Erlenmeyer flask. It was diluted at 30 and 50% with carboxymethylcellulose and administered by oral intubation.
The compound was tested on 40 rats (20 males/20 females). They were 6 to 7 weeks old and weighed 160 to 180 g.
The males and females were segregated and housed in Macrolon cages in groups of 5 in a room kept at a constant temperature of 22 ±1° C. and a relative humidity of approximately 50%. They received water and food ad libitum. The rats were starved during one night before starting the treatment. The doses were 3170, 4640, 6000 and 10,000 mg/kg body weight.

rats [2] = experiment: No effect level, 90-day dietary administration to rats with 28-day recovery; format: in vivo, rat; settings: for no effect level (dietary concentration): diet
Protocol: Compound III was administered in the diet to groups of 30 (groups 2 and 3) and 40 (group 4) rats at concentrations of 300, 1000 and 3000 ppm respectively (equivalent to an average daily intake of 19, 62 and 179 mg/kg body weight), for not less than 90 days. Forty rats in the control group received the same diet but without the addition of Compound III.
Ten rats (5+5) from each of groups 1 (control) and 4 (3000 ppm) were retained without treatment for 28 days after the end of the main study, as a recovery experiment.

[3] = Milling test, impact-modified suspension PVC (Example 15); settings: 190° C.
Protocol: Experiment 1: A dry blend, consisting of 100 parts by weight of suspension PVC (K-value 58), 1.0 part by weight of wax ester and 0.2 part by weight of montan wax as the lubricant, 1.0 part by weight of acrylic resin as a processing aid, 12.0 parts by weight of MBS modifying resin, as an additive to improve impact strength, and 0.8 part by weight of methyl-tin tris-(myristyl-thioglycollate), corresponding to 0.09 part of tin, is milled on a laboratory mill at 190° C. Every 5 minutes, an 0.3 mm thick piece of film is removed to assess the discolouration.
Experiment 2: The above experiment is repeated with 1.1 parts by weight of the same stabiliser, corresponding to 0.13 part of tin. The very slight yellow discolouration in this case occurs after 20 minutes, and the light yellow discolouration after 25 minutes.

[4] = Heat stability test on laboratory mill (Example 11); settings: 190° C., 1.0 part stabiliser per 100 parts suspension PVC, 0.5 part montan wax, 1.0 part monoglycerol ester
Protocol: (§1) A dry blend, consisting of 100 parts of suspension PVC, 0.5 part of montan wax, 1.0 part of monoglycerol ester and 1.0 part of organo-tin stabiliser according to the table below, is milled on a laboratory mill at 190° C. Every 5 minutes, an 0.3 mm thick piece of film is taken off to asist the discolouration.

[5] = Heat stability, bulk-polymerised PVC at 0.15 g Sn/100 g PVC (Example 12); settings: 0.3 part montan wax, 0.15 g of Sn/100 g of PVC
Protocol: as §1
Moulding materials consisting of 100 parts of bulk-polymerised PVC and 0.3 part of montan wax together with the organo-tin stabilisers according to the table which follows are examined for their heat stability, analogously to Example 11. The amounts of stabiliser are calculated to correspond to the use of 0.15 g of Sn/100 g of PVC.

[6] = Milling test, plasticised suspension PVC (Example 14); settings: 180° C., 0.5 part by weight stabiliser
Protocol: A mixture of 100 parts by weight of suspension PVC (K-value 71), 40 parts by weight of di-2-ethylhexyl phthalate, 0.3 part by weight of montan wax and 0.5 part by weight of octyl-tin tris-cetyl-thioglycollate, corresponding to 0.05 g of Sn/100 g of PVC, is milled on a laboratory mill at 180° C. until yellowing beings to occur.

[7] = Milling test, vinyl chloride/vinyl acetate copolymer (Example 13); settings: 20 minutes at 180° C., 1.35 g stabiliser, 0.13 g of tin per 100 parts of copolymer
From the text: 100 parts of a vinyl chloride/vinyl acetate copolymer (vinyl acetate content 10%, K-value 60 to 61) are premixed with 0.5 part of montan wax, 1.0 part of monoglycerol ester and an organo-tin stabiliser of the formula C8 H17 Sn(SCH2 COO-n-C16 H33)3. The amount of organo-tin stabiliser (1.35 g) is so chosen that 0.13 g of tin are present per 100 parts of copolymer.

[8] = tin content of 49%; known stabiliser; cited from earlier work
[9] = 300, 1000 and 3000 ppm in diet, not less than 90 days
[10] = 0.8 part by weight stabiliser, 0.09 part of tin (Experiment 1)
[11] = 1.1 parts by weight stabiliser, 0.13 part of tin (Experiment 2)

CCCCCCC[CH2][Sn]([CH2]CCCCCCC)([S]CC(=O)OCCCCCC(C)C)[S]CC(=O)OCCCCCC(C)C [Compound I, (n-C8 H17)2 Sn(SCH2 COO-i-C8 H17)2, reference compound]
acute oral LD50 (rats [1]; 14 days): 2000 mg/kg | no effect level (dietary concentration) (rats [2]; rats, not less than 90 days): 25 ppm

CCCCCCC[CH2][Sn]([S]CC(=O)OCCCCCC(C)C)([S]CC(=O)OCCCCCC(C)C)[S]CC(=O)OCCCCCC(C)C [Compound II, n-C8 H17 Sn(SCH2 COO-i-C8 H17)3, reference compound]
acute oral LD50 (rats [1]; 14 days): 5000 mg/kg | no effect level (dietary concentration) (rats [2]; rats, not less than 90 days): 500 ppm

CCCCCCCCCCCCCCOC(=O)C[S][Sn]([CH2]CCCCCCC)([S]CC(=O)OCCCCCCCCCCCCCC)[S]CC(=O)OCCCCCCCCCCCCCC [Compound III, n-C8 H17 Sn(SCH2 COO-n-C14 H29)3]
mortality, acute test (rats [1]; 3170, 4640, 6000 and 10,000 mg/kg body weight, 14 days): No animal died | autopsy findings, acute test (rats [1]; killed animals, 3170 to 10,000 mg/kg): no substance related gross organ changes were seen | acute toxicity grading (rats [1]; rat, oral): slight acute toxicity | acute oral LD50 (rats [1]; 14 days): greater than 10,000 mg/kg | clinical symptoms, 90-day diet study (rats [2]; [9]): no clinical symptoms were recorded | deaths, 90-day diet study (rats [2]; [9]): No deaths occured | body weight gains, food consumption, laboratory parameters, organ weight data after recovery (rats [2]; group 4 (3000 ppm) versus control, 28 days recovery): no significant difference | histopathological changes after recovery (rats [2]; group 4 (3000 ppm), 28 days recovery): No histopathological changes were seen | body weight gain (rats [2]; male rats, 3000 ppm, following day 14, versus untreated controls): gained less body weight than untreated controls | body weights at termination of treatment (rats [2]; male rats, 3000 ppm, versus untreated control animals): slightly below those from untreated control animals | no effect level (dietary concentration) (rats [2]; rats, not less than 90 days): 3000 ppm | no effect level as average daily intake (rats [2]; rats, equivalent to 3000 ppm in diet, 129600 min): 179 mg/kg body weight | feed consumption (rats [2]; top dose rats (3000 ppm)): decreased feed consumption

CCCCCCCCCCCCCCOC(=O)C[S][Sn]([CH3])([S]CC(=O)OCCCCCCCCCCCCCC)[S]CC(=O)OCCCCCCCCCCCCCC [Example 1, methyl-tin tris-(myristyl-thioglycollate)]
milling time to reach a light yellow discolouration [3, 10]: 20 min | milling time to reach a very slight yellow discolouration [3, 10]: 15 min | milling time to light yellow discolouration [3, 11]: 25 min | milling time to very slight yellow discolouration [3, 11]: 20 min | Heat stability of the moulding material (time to recognisable colour change to light brown-yellow) [4]: 25 min

CCCCCCCCCCCCOC(=O)C[S][Sn]([CH2]CCC)([S]CC(=O)OCCCCCCCCCCCC)[S]CC(=O)OCCCCCCCCCCCC [Example 2, butyl-tin tris-(lauryl-thioglycollate)]
Time in minutes for which the films remain colourless [5]: 25 min

CCCCCCCCCCCCCCCCOC(=O)C[S][Sn]([CH2]CCC)([S]CC(=O)OCCCCCCCCCCCCCCCC)[S]CC(=O)OCCCCCCCCCCCCCCCC [Example 3, butyl-tin tris-(cetyl-thioglycollate)]
Time in minutes for which the films remain colourless [5]: 35 min

CCC[CH2][Sn]([S]CC(=O)OCCCCCCCCCCCCCCCC(C)C)([S]CC(=O)OCCCCCCCCCCCCCCCC(C)C)[S]CC(=O)OCCCCCCCCCCCCCCCC(C)C [Example 8, butyl-tin tris-(i-octadecyl thioglycollate)]
Time in minutes for which the films remain colourless [5]: 30 min

CCCCCCCCCCCCCCCCOC(=O)C[S][Sn]([CH2]CCCCCCC)([S]CC(=O)OCCCCCCCCCCCCCCCC)[S]CC(=O)OCCCCCCCCCCCCCCCC [Example 10, octyl-tin tris-(cetyl-thioglycollate)]
time until a very slight yellowing is just detectable ([6]; 0.05 g of Sn/100 g of PVC, 40 parts di-2-ethylhexyl phthalate): 74 min | appearance of the mill hide after 105 minutes ([6]; 105 minutes): slightly yellow | yellowing detectable after milling [7]: only very slight yellowing is detectable | Heat stability of the moulding material (time to recognisable colour change to light brown-yellow) [4]: 25 min

butyl-tin tris(alfyl(12)-thioglycollate) [Example 4]
Time in minutes for which the films remain colourless [5]: 30 min

butyl:tin tris(alfyl(14)-thioglycollate) [Example 5]
Heat stability of the moulding material (time to recognisable colour change to light brown-yellow) [4]: 25 min

butylthiostannonic acid
stabiliser effect relative to tin content [8]: relatively slight effect

octyl-tin tris(alfyl(14)-thioglycollate) [Example 9]
Time in minutes for which the films remain colourless [5]: 35 min
